Nine compounds from patent publication US4082849A, “Halogenated N-(3,5-dihalophenyl)cyclopropanedicarboximides” (priority 1975, dated 1978) can be followed below.

Where two headings read alike, the source gives them in different places.

For assay [1], the system named is Botrytis cinerea. The assay can be described thus: Test for Botrytis cinerea controlling effect on cucumbers. Type of assay: in vivo. On the procedure: After one day, agar discs (diameter: 5 mm) with Botrytis cinerea were put on the leaves for inoculation. Three days after, the disease severity was observed, and the disease-controlling effect was estimated. Percentage of control was determined by the following procedure. The rate of diseased area on the tested leaf was measured and classified in one of the six infectious indexes (0, 1, 2, 3, 4, 5) according to the undermentioned criteria. The number of leaves corresponding to each infectious index ([NT]5) was determined, and percentage of control was calculated according to the undermentioned equation: […]

Assay [2] deals with Sclerotinia sclerotiorum. As to the kind of experiment: Test for Sclerotinia sclerotiorum controlling effect on cucumbers. Type of assay: in vivo. The following applies: 100 ppm. As for the experimental part:
After one day, Sclerotinia sclerotiorum was inoculated on the surface of the leaf, and the disease severity was observed three days thereafter. The degree of the severity was determined in the following manner. The rate of diseased area on the leaf was measured and classified in one of the six infectious indexes (0, 1, 2, 3, 4, 5) according to the undermentioned criteria. The number of leaves corresponding to each infectious index ([NT]5) was determined, and degree of severity was calculated according to the undermentioned equation: […]

Assay [3] relates to Phytophthora infestans. The assay can be described thus: microbe, parasite or virus in culture. Particulars: read-out: growth inhibiting effect. Type of assay: cell-based.
Assay [4] has as its system Rhizopus nigricans. The assay can be described thus: Anti-fungal spectrum, agar dilution method. Type of assay: cell-based. Particulars: Rhizopus stolonifer, PSA plate, 28° C, read-out: growth inhibiting effect. On the technique in general: In agar dilution, organisms are placed on agar that contains the substance at set levels.
The test system of assay [5] is Pyricularia oryzae. The assay can be described thus: microbe, parasite or virus in culture. It is filed as cell-based. The following applies: read-out: growth inhibiting effect.
Assay [6] has as its system Pellicularia sasakii. The assay can be described thus: Anti-fungal spectrum, agar dilution method. Type of assay: cell-based. The following applies: read-out: growth inhibiting effect.
The subject of assay [7] is Botrytis cinerea. The assay can be described thus: Anti-fungal spectrum, agar dilution method. It is filed as cell-based. Particulars: PSA plate, 28° C, read-out: growth inhibiting effect.
Assay [8] relates to Sclerotinia sclerotiorum. The assay can be described thus: Anti-fungal spectrum, agar dilution method. The following applies: PSA plate, 28° C, read-out: growth inhibiting effect. It is filed as cell-based.
Assay [9] concerns Glomerella cingulata. As to the kind of experiment: Anti-fungal spectrum, agar dilution method. Type of assay: cell-based. The following applies: Colletotrichum gloeosporioides, PSA plate, 28° C, read-out: growth inhibiting effect.
Assay [10] has as its system Rhizoctonia solani. As to the kind of experiment: Anti-fungal spectrum, agar dilution method. Type of assay: cell-based. Particulars: PSA plate, 28° C, read-out: growth inhibiting effect.
Assay [11] deals with Giberella fujikuroi. The assay can be described thus: Anti-fungal spectrum, agar dilution method. It is filed as cell-based. The following applies: read-out: growth inhibiting effect.
The test system of assay [12] is Corticium rolfsii. As to the kind of experiment: Anti-fungal spectrum, agar dilution method. Type of assay: cell-based. The following applies: Agroathelia rolfsii, PSA plate, 28° C, read-out: growth inhibiting effect.
In assay [13] the test system is Verticillium albo-atrum. As to the kind of experiment: Anti-fungal spectrum, agar dilution method. It is filed as cell-based. The following applies: PSA plate, 28° C, read-out: growth inhibiting effect.
Assay [14] concerns Fusarium oxysporum f. lycopersici. As to the kind of experiment: Anti-fungal spectrum, agar dilution method. It is filed as cell-based. Particulars: PSA plate, 28° C, read-out: growth inhibiting effect.
Assay [15] deals with Colletotrichum lagenarium. The assay can be described thus: Anti-fungal spectrum, agar dilution method. It is filed as cell-based. Particulars: Colletotrichum orbiculare, PSA plate, 28° C, read-out: growth inhibiting effect.
The test system of assay [16] is Aspergillus niger ATCC 6275. As to the kind of experiment: Anti-fungal spectrum, agar dilution method. The following applies: Aspergillus niger ATCC 6275, 50 ppm, PSA plate, 28° C. It is filed as cell-based.
The subject of assay [17] is Chaetomium globosum ATCC 6205. The assay can be described thus: Anti-fungal spectrum, agar dilution method. It is filed as cell-based. The following applies: Chaetomium globosum ATCC 6205, 50 ppm, PSA plate, 28° C.
Assay [18] deals with Glomerella cingulata.
Procedure: Test for Glomerella Cingulata controlling effect on grape
An aqueous dilution of the test compound in the form of a wettable powder preparation was applied to berries of grape at a rate of 20 ml per branch. After one day, Glomerella cingulata was inoculated on the surface of the berries immediately after injuring the inoculation site. Three days after inoculation, disease assessment was made. Percentage of control was calculated from the diameter of diseased area according to the following equation: [formula]
The test system of assay [19] is Rhizoctonia solani.
Procedure: Test for Rhizoctonia solani controlling effect on cucumber
Farm soil was charged into pots of 9 cm in diameter and a soil (10 ml) infected with Rhizoctonia solani was dispersed over the surface of said soil. Each of the test compounds in the form of emulsifiable concentrates was diluted with water to a given concentration, and the dilution was applied into each pot in a proportion of 20 ml per pot. After 2 hours, 10 seeds of cucumber were sowed therein. 5 Days thereafter, the infectious state of the grown seedlings was observed, and the percentage of stand was calculated according to the following equation: [formula]
Setting [20] is: Pellicularia sasakii, 50 ppm, PSA plate, 28° C.
[21] abbreviates: Giberella fujikuroi, 50 ppm, PSA plate, 28° C.

In the case of `CC12CC1(Br)C(=O)N(c1cc(Cl)cc(Cl)c1)C2=O` (stereo not drawn) [Compound 5], the figures for the Percentage of control in [1] (50 ppm) and in assay [1] (200 ppm) were 95% and 100%, respectively. Besides, in [2], the Degree of severity is given as 100%.
In the case of `CC12CC1(Cl)C(=O)N(c1cc(Br)cc(Br)c1)C2=O` (stereo not drawn) [Compound 3, N-(3,5-dibromophenyl)-α-chloro-β-methylcyclopropanedicarboximide], the Percentage of control is listed as 92% in assay [1] (50 ppm), 100% in assay [1] (200 ppm) and 78.5% in [18] (250 ppm of ingredient). Also, the Degree of severity in [2] worked out at 94%. Further, the inhibition at 50 ppm turned out to be 100% in [3]; 90% in [4]; 90% in [5]; 100% in [6] (setting [20]); 100% in assay [7]; 100% in [8]. Moreover, the inhibition at 50 ppm in [9], in assay [10], in [11] (setting [21]), in [12], in [13] and in [14] was 100% in each case. The inhibition at 50 ppm in assay [15] came out at 90%. Moreover, the growth inhibiting effect entry in assay [16] and in assay [17] was “A (no growth)” throughout.
For `CCCCNC(=O)n1c(NC(=O)OC)nc2ccccc21` [Methyl-1-(butylcarbamoyl)-2-benzimidazole carbamate, reference compound], the Percentage of control in assay [1] (50 ppm) amounted to 90%; in assay [1] (200 ppm) it was 100%. In assay [2], this compound registered a Degree of severity of 35%.
Regarding `CC12CC1(C)C(=O)N(c1cc(Cl)cc(Cl)c1)C2=O` (stereo not drawn) [reference compound], the inhibition at 50 ppm is 0% in assay [3]; 0% in [4]; 0% in [5]; 100% in assay [6]; 100% in assay [7]; 100% in [8]. For the same compound, the inhibition at 50 ppm came to 30% in [9]; 90% in assay [10]; 0% in assay [11]; 0% in assay [12]; 5% in [13]; 70% in [14]. The inhibition at 50 ppm in assay [15] worked out at 0%. Moreover, the growth inhibiting effect entry in assay [16] and in assay [17] was “E (5 % inhibition)” in each case. For the same compound, in assay [18] (250 ppm of ingredient), the Percentage of control amounted to 6.5%. Moreover, the Percentage of stand in [19] (250 ppm) came to 0%; in [19] (500 ppm), 21.3%.
The compound Mancozeb [reference compound] displayed a Percentage of control in assay [18] (140 ppm of ingredient) of 65.0%.
The compound `O=[N+]([O-])c1c(Cl)c(Cl)c(Cl)c(Cl)c1Cl` [PCNB, reference compound] registered a Percentage of stand in assay [19] (250 ppm) of 93.4%.
In the case of `CC1C2C(=O)N(c3cc(Cl)cc(Cl)c3)C(=O)C12Cl` (stereo not drawn) [Compound 4], the Percentage of control in assay [1] (50 ppm) and in assay [1] (200 ppm) was 100% each time. Further, in assay [2], the Degree of severity came to 100%. Further, the Percentage of stand in [19] (250 ppm) is on record as 96.7%; in [19] (500 ppm) it was 100%.
On to `CC12CC1(Cl)C(=O)N(c1cc(Cl)cc(Cl)c1)C2=O` (stereo not drawn) [Compound 1, N-(3,5-dichlorophenyl)-α-chloro-β-methylcyclopropanedicarboximide], for which the Degree of severity in [2] is recorded as 100%. Also, the inhibition at 50 ppm in assay [3] was determined as 100%; in assay [4], 100%; in [5], 90%; in assay [6] (setting [20]), 100%; in assay [7], 100%; in [8], 100%. Further, the inhibition at 50 ppm in assay [9], in [10], in assay [11] (setting [21]), in assay [12], in [13] and in [14] was 100% in each case. Further, the inhibition at 50 ppm in assay [15] is 100%. In addition, the growth inhibiting effect result in assay [16] and in [17] was “A (no growth)” each time. Also, the Percentage of control in assay [18] (250 ppm of ingredient) worked out at 100%. For the same compound, the Percentage of stand in [19] (250 ppm) and in assay [19] (500 ppm) was 100% in each case.
In the case of `O=C1C2CC2(Cl)C(=O)N1c1cc(Cl)cc(Cl)c1` (stereo not drawn) [Compound 2], the Percentage of control in assay [1] (50 ppm), in [1] (200 ppm) and in assay [18] (250 ppm of ingredient) was 100% throughout. For the same compound, in assay [2], the Degree of severity is reported as 100%. The Percentage of stand in [19] (250 ppm) and in [19] (500 ppm) was 100% throughout.
